Experimental findings from ChEMBL document CHEMBL5154789 (J Med Chem, 2022) are described below.

Assay [1] concerns the target Fibroblast growth factor receptor 3 (Homo sapiens, UniProt P22607).
Description: Inhibition of FGFR3 (unknown orgin) using Tyr 04 peptide as substrate incubated for 1 hr in presence of 75 uM ATP by FRET based Z'-LYTE assay
In a further assay the test system is NCI-H1299. Put plainly: cells. The conditions noted are these: Homo sapiens, NCI-H1299, 120 h.
The test system of assay [2] is BaF3. Put plainly: cells. The conditions noted are these: Mus musculus, BaF3, 72 h.
The target of assay [3] is Fibroblast growth factor receptor 4 (Homo sapiens, UniProt P22455). Put plainly: Inhibition of N-terminal 6His-tagged FGFR4 (unknown orgin) (445 to 753 residues) expressed in Rosetta (NEB) cells using Tyr 04 peptide as substrate incubated for 1 hr in presence of 150 uM ATP by FRET based Z'-LYTE assay.
Chain of Fibroblast growth factor receptor 4 (P22455 whole entry, the tested form may be a part): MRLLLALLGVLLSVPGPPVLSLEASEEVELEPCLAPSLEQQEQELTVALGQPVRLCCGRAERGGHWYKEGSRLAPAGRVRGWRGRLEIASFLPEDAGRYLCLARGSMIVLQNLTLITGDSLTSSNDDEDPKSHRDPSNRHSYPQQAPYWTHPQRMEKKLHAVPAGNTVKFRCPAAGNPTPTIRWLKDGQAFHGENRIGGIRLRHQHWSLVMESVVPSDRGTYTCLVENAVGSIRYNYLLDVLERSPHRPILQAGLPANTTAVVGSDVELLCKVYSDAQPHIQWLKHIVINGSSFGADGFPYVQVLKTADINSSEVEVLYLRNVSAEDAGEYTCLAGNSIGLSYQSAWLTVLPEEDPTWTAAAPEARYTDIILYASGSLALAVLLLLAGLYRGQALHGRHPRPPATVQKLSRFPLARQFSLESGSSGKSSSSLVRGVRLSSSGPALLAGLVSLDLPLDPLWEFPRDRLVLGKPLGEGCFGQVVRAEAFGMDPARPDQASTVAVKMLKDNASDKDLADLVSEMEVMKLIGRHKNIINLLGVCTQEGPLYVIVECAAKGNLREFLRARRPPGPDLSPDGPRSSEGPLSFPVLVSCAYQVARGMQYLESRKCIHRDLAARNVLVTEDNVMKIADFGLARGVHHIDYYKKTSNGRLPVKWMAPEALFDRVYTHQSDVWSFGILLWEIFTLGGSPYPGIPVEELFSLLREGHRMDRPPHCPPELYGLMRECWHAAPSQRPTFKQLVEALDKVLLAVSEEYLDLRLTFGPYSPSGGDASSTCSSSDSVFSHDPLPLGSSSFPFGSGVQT
For the next assay, the system named is MDA-MB-453. Kind of assay: cells. The conditions noted are these: Homo sapiens, MDA-MB-453, 120 h.
Assay [4] concerns the target Fibroblast growth factor receptor 2 (Homo sapiens, UniProt P21802).
Description: Inhibition of FGFR2 (unknown orgin) using Tyr 04 peptide as substrate incubated for 1 hr in presence of 5 uM ATP by FRET based Z'-LYTE assay
In a further assay the test system is Hep 3B2. Put plainly: cells. The conditions noted are these: Homo sapiens, Hep3B, 120 h.
Assay [5] has as its target Fibroblast growth factor receptor 1 (Homo sapiens, UniProt P11362).
Description: Inhibition of FGFR1 (unknown orgin) using Tyr 04 peptide as substrate incubated for 1 hr in presence of 25 uM ATP by FRET based Z'-LYTE assay
Assay [6] can be described thus: Antiproliferative activity against human JHH7 cells assessed as inhibition of cell growth incubated for 5 days by SRB assay. The conditions noted are these: JHH7, 120 h. It counts as functional, cell-based. Background: Sulforhodamine B stains cellular protein and so reports cell mass.
For assay [7], the system named is BaF3. Kind of assay: cells. The conditions noted are these: Mus musculus, BaF3, 72 h. This is another data set of the same source.
Assay [8] has as its system BaF3. Kind of assay: Antiproliferative activity against mouse BAF3 cells assessed as inhibition of cell growth incubated for 72 hrs by CCK8 assay. The class given is functional, cell-based. The conditions noted are these: BaF3, 72 h. A general note: Tetrazolium assays rely on reduction of a dye to a coloured formazan, in cell work by metabolically active cells.
The test system of the next assay is Huh-7. Put plainly: Antiproliferative activity against human Huh-7 cells assessed as inhibition of cell growth incubated for 5 days by SRB assay. The conditions noted are these: Huh-7, 120 h. The class given is functional, cell-based.
Assay [9] relates to BaF3. Put plainly: Antiproliferative activity against mouse BAF3 cells expressing FGFR4 V550M mutant assessed as inhibition of cell growth incubated for 72 hrs by CCK8 assay. It counts as functional, cell-based. The conditions noted are these: BaF3, 72 h.

Structures are written as SMILES.

Chain of Fibroblast growth factor receptor 1 (P11362 whole entry): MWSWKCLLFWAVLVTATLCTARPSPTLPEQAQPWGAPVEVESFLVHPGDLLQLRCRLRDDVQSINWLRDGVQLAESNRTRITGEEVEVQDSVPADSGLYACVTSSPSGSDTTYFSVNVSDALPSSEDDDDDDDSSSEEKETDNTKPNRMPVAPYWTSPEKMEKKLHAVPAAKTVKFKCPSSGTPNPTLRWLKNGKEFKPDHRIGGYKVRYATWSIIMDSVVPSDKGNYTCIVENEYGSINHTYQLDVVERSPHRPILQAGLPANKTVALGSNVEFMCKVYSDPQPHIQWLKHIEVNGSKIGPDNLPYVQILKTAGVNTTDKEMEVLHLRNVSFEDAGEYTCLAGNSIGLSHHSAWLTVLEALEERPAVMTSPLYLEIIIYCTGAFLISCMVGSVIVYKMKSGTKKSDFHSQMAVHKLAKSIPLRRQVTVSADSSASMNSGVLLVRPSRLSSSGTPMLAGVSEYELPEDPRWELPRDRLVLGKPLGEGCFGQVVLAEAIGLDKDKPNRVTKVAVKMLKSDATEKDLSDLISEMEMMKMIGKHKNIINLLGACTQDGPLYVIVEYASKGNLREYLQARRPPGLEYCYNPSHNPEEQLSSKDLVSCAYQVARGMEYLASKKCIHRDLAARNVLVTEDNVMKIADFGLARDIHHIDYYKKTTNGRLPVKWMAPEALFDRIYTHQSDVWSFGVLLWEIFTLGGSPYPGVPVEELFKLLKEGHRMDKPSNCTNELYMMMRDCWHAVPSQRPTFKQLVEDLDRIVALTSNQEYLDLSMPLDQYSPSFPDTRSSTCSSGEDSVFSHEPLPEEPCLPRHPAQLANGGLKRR
Chain of Fibroblast growth factor receptor 2 (P21802 whole entry): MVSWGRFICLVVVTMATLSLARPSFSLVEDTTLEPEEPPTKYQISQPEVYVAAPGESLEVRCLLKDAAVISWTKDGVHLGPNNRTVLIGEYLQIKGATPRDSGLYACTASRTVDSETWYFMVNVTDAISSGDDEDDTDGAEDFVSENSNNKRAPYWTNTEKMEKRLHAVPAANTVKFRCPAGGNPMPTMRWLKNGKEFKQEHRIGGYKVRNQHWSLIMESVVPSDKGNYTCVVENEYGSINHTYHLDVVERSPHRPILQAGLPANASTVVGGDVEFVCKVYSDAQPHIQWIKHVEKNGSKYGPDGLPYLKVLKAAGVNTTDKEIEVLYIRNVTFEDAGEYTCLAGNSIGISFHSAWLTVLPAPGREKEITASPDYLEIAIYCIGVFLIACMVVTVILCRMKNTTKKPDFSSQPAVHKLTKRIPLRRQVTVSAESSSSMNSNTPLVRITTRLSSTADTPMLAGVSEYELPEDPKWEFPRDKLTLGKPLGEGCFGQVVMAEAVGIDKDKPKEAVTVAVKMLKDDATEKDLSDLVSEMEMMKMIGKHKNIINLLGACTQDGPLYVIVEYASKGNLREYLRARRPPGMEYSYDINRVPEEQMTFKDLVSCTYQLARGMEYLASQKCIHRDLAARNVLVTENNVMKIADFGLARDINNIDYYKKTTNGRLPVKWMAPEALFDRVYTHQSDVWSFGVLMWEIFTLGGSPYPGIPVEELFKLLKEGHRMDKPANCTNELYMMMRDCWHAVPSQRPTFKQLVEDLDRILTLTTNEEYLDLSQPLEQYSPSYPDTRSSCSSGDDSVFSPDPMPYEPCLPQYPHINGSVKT
Chain of Fibroblast growth factor receptor 3 (P22607 whole entry): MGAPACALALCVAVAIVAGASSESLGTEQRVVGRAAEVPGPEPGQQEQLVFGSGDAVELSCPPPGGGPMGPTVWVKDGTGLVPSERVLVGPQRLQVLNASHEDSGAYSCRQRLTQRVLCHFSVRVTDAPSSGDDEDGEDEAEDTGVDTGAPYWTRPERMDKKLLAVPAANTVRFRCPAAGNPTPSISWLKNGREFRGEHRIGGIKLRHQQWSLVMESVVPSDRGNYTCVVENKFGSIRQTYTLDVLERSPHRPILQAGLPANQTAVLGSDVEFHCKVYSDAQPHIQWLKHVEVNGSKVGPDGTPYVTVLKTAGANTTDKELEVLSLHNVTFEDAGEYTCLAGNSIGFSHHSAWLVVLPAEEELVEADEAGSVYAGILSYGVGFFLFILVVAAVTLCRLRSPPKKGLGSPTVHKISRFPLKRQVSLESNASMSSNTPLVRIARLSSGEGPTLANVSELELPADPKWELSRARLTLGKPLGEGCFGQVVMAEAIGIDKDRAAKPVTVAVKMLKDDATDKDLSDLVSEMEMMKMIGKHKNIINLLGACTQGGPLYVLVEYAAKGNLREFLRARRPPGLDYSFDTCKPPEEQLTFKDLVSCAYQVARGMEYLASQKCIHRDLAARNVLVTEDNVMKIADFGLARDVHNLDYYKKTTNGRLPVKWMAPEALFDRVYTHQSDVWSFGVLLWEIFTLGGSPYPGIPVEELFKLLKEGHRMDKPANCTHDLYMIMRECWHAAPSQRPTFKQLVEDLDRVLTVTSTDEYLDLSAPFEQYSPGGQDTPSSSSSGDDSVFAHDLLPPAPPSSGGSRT
Description for Hep 3B2: Antiproliferative activity against human Hep3B cells assessed as inhibition of cell growth incubated for 5 days by SRB assay
Description for MDA-MB-453: Antiproliferative activity against human MDA-MB-453 cells assessed as inhibition of cell growth incubated for 5 days by SRB assay
Description for NCI-H1299: Antiproliferative activity against human NCI-H1299 cells assessed as inhibition of cell growth incubated for 5 days by SRB assay

As to `C=CC(=O)Nc1cccc(CC)c1Nc1n[nH]c2ccc(O[C@H](C)c3c(Cl)cncc3Cl)cc12`, the IC50 (commonly the concentration that inhibits the measured activity by half) is over 10000 nM in [1]; 4580 nM in the assay with NCI-H1299; over 2000 nM in the assay with BaF3 [2]; over 10000 nM in assay [3]; 7590 nM in the assay on MDA-MB-453; over 10000 nM in [4]. In the assay with Hep 3B2, half-maximal inhibition (IC50) required 16300 nM.
Consider `C=CC(=O)Nc1cc(N2CCN(C3COC3)CC2)cc(F)c1Nc1n[nH]c2ccc(O[C@H](C)c3c(Cl)cncc3Cl)cc12`, for which the half-maximal inhibitory concentration (IC50) in assay [5] was over 10000 nM; in [1], over 10000 nM; in the assay with NCI-H1299, 3000 nM; with BaF3 [2] it was 1.9 nM; with MDA-MB-453 it was 14 nM; in assay [4] it was over 10000 nM. Besides, the 50% inhibitory concentration (IC50) in the assay with Hep 3B2 stood at 51 nM.
As to `C=CC(=O)Nc1cc(N2CCN(C)CC2)cc(F)c1Nc1n[nH]c2ccc(O[C@H](C)c3c(Cl)cncc3Cl)cc12`, the IC50 in [6] was 28 nM; in [5], over 10000 nM; in the assay with BaF3 [7] it was 2.5 nM; in [1], over 10000 nM; in the assay on NCI-H1299 it was 2060 nM; in the assay on BaF3 [2], 0.9 nM. The IC50 in the assay on BaF3 [8] was over 1000 nM; with MDA-MB-453, 18 nM; in assay [4], over 10000 nM; with Huh-7, 96 nM; with Hep 3B2, 18 nM; with BaF3 [9] it was 3.7 nM.
As for `C=CC(=O)Nc1cn(C)nc1Nc1n[nH]c2ccc(O[C@H](C)c3c(Cl)cncc3Cl)cc12`, the IC50 in assay [1] and in assay [4] was over 10000 nM throughout.
Consider `C=CC(=O)Nc1ccccc1Nc1n[nH]c2cc(-c3c(Cl)c(OC)cc(OC)c3Cl)ccc12`, for which the results for the IC50 in assay [3] and in [4] were over 10000 nM and 4770 nM, respectively.
Turning to `C=CC(=O)Nc1ccccc1Nc1n[nH]c2ccc(OC(C)c3c(Cl)ccc(F)c3Cl)cc12` (stereo unspecified), the IC50 in assay [1] and in assay [4] was over 10000 nM throughout.
As to `C=CC(=O)Nc1ccccc1Nc1n[nH]c2ccc(OCc3c(Cl)cncc3Cl)cc12`, the IC50 in assay [4] was over 10000 nM.
For `C=CC(=O)Nc1cccc(Cl)c1Nc1n[nH]c2ccc(O[C@H](C)c3c(Cl)cncc3Cl)cc12`, the half-maximal inhibitory concentration (IC50) in [1] was over 10000 nM; with NCI-H1299, 6100 nM; in the assay with BaF3 [2] it was 3 nM; with MDA-MB-453 it was 570 nM; in assay [4] it was over 10000 nM; with Hep 3B2 it was 4440 nM.
For `C=CC(=O)Nc1cccc(OC)c1Nc1n[nH]c2ccc(O[C@H](C)c3c(Cl)cncc3Cl)cc12`, the IC50 in assay [1] was over 10000 nM; with NCI-H1299 it was 4880 nM; with BaF3 [2], 3560 nM; in the assay on MDA-MB-453, 5190 nM; in assay [4], over 10000 nM; in the assay on Hep 3B2, 10500 nM.
Take `C=CC(=O)Nc1cc(N2CCC(N3CCOCC3)CC2)ccc1Nc1n[nH]c2ccc(O[C@H](C)c3c(Cl)cncc3Cl)cc12`: the half-inhibitory concentration (IC50) is over 10000 nM in assay [5]; over 10000 nM in [1]; 3360 nM with NCI-H1299; 0.2 nM in the assay with BaF3 [2]; 110 nM in the assay on MDA-MB-453; over 10000 nM in assay [4]. Also, the IC50 in the assay on Hep 3B2 came to 220 nM.
As to `C=CC(=O)N1CCC[C@@H](Nc2n[nH]c3ccc(O[C@H](C)c4c(Cl)cncc4Cl)cc23)C1`, the IC50 in [1], in [3] and in [4] was over 10000 nM throughout.
Turning to `C=CC(=O)Nc1cccc(Cl)c1Nc1ncc2cc(-c3c(Cl)c(OC)cc(OC)c3Cl)ccc2n1`, the IC50 in assay [6] was 194 nM; in the assay with BaF3 [7] it was over 100 nM; in the assay with NCI-H1299 it was 1070 nM; with BaF3 [2], 2.4 nM; in the assay on BaF3 [8] it was over 1000 nM; with MDA-MB-453, 62 nM. For the same compound, the IC50 in [4] is 238 nM; with Huh-7, 48 nM; with Hep 3B2 it was 160 nM; with BaF3 [9], over 100 nM.
As for `C=CC(=O)Nc1cc(N2CCN(C)CC2)ccc1Nc1n[nH]c2ccc(O[C@H](C)c3c(Cl)cncc3Cl)cc12`, the IC50 in assay [1] was over 10000 nM; in the assay on NCI-H1299, 2530 nM; with BaF3 [2], 6 nM; with MDA-MB-453, 120 nM; in assay [4], over 10000 nM; in the assay with Hep 3B2 it was 290 nM.
The compound `C=CC(=O)Nc1ccccc1Nc1n[nH]c2ccc(OC(CC)c3c(Cl)cncc3Cl)cc12` (stereo unspecified) showed a half-inhibitory concentration (IC50) in assay [4] of over 10000 nM.
As for `C=CC(=O)Nc1cc(N2CCOCC2)ccc1Nc1n[nH]c2ccc(O[C@H](C)c3c(Cl)cncc3Cl)cc12`, the IC50 in assay [1] is over 10000 nM; in the assay with NCI-H1299, 5310 nM; with BaF3 [2] it was 15 nM; in the assay on MDA-MB-453, 750 nM; in assay [4], over 10000 nM; in the assay with Hep 3B2 it was 730 nM.
As to `C=CC(=O)Nc1cccc(F)c1Nc1n[nH]c2ccc(O[C@H](C)c3c(Cl)cncc3Cl)cc12`, the IC50 was over 10000 nM in assay [1]; 3800 nM in the assay with NCI-H1299; 7.6 nM in the assay on BaF3 [2]; 190 nM with MDA-MB-453; over 10000 nM in [4]; 710 nM with Hep 3B2.
As for `C=CC(=O)Nc1cc(N2CCC(N(C)C)CC2)cc(F)c1Nc1n[nH]c2ccc(O[C@H](C)c3c(Cl)cncc3Cl)cc12`, the IC50 is over 10000 nM in assay [5]; over 10000 nM in assay [1]; 1600 nM in the assay with NCI-H1299; 1.5 nM in the assay with BaF3 [2]; 7 nM in the assay on MDA-MB-453; over 10000 nM in assay [4]. For the same compound, the midpoint of inhibition in the assay on Hep 3B2, the IC50, lay at 50 nM.
As to `C=CC(=O)Nc1cc(N(C)CCOC)cc(F)c1Nc1n[nH]c2ccc(O[C@H](C)c3c(Cl)cncc3Cl)cc12`, the IC50 in [1] was over 10000 nM; in the assay on NCI-H1299, 4760 nM; with BaF3 [2], 20 nM; with MDA-MB-453, 210 nM; in assay [4] it was over 10000 nM; with Hep 3B2, 330 nM.
On to `C=CC(=O)Nc1cc(N2CCOCC2)cc(F)c1Nc1n[nH]c2ccc(O[C@H](C)c3c(Cl)cncc3Cl)cc12`, for which the concentration for half-maximal inhibition (IC50) in assay [1] was over 10000 nM; with NCI-H1299 it was 3760 nM; with BaF3 [2] it was 9.5 nM; in the assay on MDA-MB-453, 64 nM; in assay [4], over 10000 nM; in the assay with Hep 3B2, 220 nM.
Consider `C=CC(=O)N1CC[C@@H](Nc2n[nH]c3ccc(O[C@H](C)c4c(Cl)cncc4Cl)cc23)C1`, for which the IC50 in assay [1] and in assay [4] was over 10000 nM throughout.
As to `C=CC(=O)Nc1ccccc1Nc1n[nH]c2ccc(O[C@H](C)c3c(Cl)cncc3Cl)cc12`, in assay [4], 949 nM corresponded to half-maximal inhibition (IC50).
Take `C=CC(=O)N[C@H]1CCCC[C@H]1Nc1n[nH]c2ccc(O[C@H](C)c3c(Cl)cncc3Cl)cc12`: the half-maximal inhibitory concentration (IC50) in assay [1], in assay [3] and in [4] was over 10000 nM each time.
Take `C=CC(=O)Nc1ccc(OC)cc1Nc1n[nH]c2ccc(O[C@H](C)c3c(Cl)cncc3Cl)cc12`: the IC50 in assay [1] was over 10000 nM; with NCI-H1299, 12500 nM; in the assay on BaF3 [2], 1990 nM; in [3], over 10000 nM; in the assay on MDA-MB-453, 15200 nM; in [4], over 10000 nM. The same compound had an IC50 in the assay with Hep 3B2 of 30200 nM.
For `C=CC(=O)Nc1cc(N2CCN(S(C)(=O)=O)CC2)cc(F)c1Nc1c[nH]c2ccc(O[C@H](C)c3c(Cl)cncc3Cl)cc12`, the half-inhibitory concentration (IC50) in [5] was over 10000 nM; in assay [1], over 10000 nM; in the assay with NCI-H1299, 2760 nM; in the assay on BaF3 [2], 6.5 nM; with MDA-MB-453, 33 nM; in assay [4] it was over 10000 nM. Also, the IC50 with Hep 3B2 came to 110 nM.
In the case of `C=CC(=O)Nc1cccc(C)c1Nc1n[nH]c2ccc(O[C@H](C)c3c(Cl)cncc3Cl)cc12`, the half-inhibitory concentration (IC50) in assay [1] is over 10000 nM; with NCI-H1299 it was 9120 nM; in the assay on BaF3 [2], 2 nM; in the assay with MDA-MB-453, 620 nM; in assay [4], over 10000 nM; with Hep 3B2, 2700 nM.
Take `C=CC(=O)Nc1cc(N2CCC(N3CCN(C)CC3)CC2)cc(F)c1Nc1n[nH]c2ccc(O[C@H](C)c3c(Cl)cncc3Cl)cc12`: the IC50 in [5] is over 10000 nM; in assay [1], over 10000 nM; in the assay on NCI-H1299, 1580 nM; with BaF3 [2] it was 1.7 nM; in the assay on MDA-MB-453, 10 nM; in assay [4] it was over 10000 nM. The same compound had an IC50 in the assay with Hep 3B2 of 47 nM.
As to `C=CC(=O)Nc1cccc(C2CC2)c1Nc1n[nH]c2ccc(O[C@H](C)c3c(Cl)cncc3Cl)cc12`, the IC50 in assay [1] is over 10000 nM; in the assay on NCI-H1299, 5170 nM; in the assay with BaF3 [2], 520 nM; in assay [3], over 10000 nM; with MDA-MB-453, 7550 nM; in [4] it was over 10000 nM. The compound further gave a half-maximal inhibitory concentration (IC50) in the assay on Hep 3B2 of 15300 nM.
Consider `CCC(=O)Nc1ccccc1Nc1n[nH]c2ccc(O[C@H](C)c3c(Cl)cncc3Cl)cc12`, for which the half-maximal inhibitory concentration (IC50) in assay [1] and in [4] was over 10000 nM throughout.
Turning to `C=CC(=O)Nc1ccccc1Nc1n[nH]c2ccc(OC(C)c3c(Cl)cccc3Cl)cc12` (stereo unspecified), the half-maximal inhibitory concentration (IC50) in assay [1], in assay [3] and in assay [4] was over 10000 nM each time.
As for `C=CC(=O)N[C@H]1CCOC[C@H]1Nc1n[nH]c2ccc(O[C@H](C)c3c(Cl)cncc3Cl)cc12`, the 50% inhibitory concentration (IC50) in assay [1], in assay [3] and in [4] was over 10000 nM each time.
